In one data set the test system is NHDF. Description: Cytotoxicity MTS assay, 72 h. The format is cell-based. The conditions noted are these: Homo sapiens, NHDF normal fibroblasts. The text has this:
(§1) The human colon carcinoma cell line HCT116 wild type (p53^+/+), human breast carcinoma cell line MCF-7 and glioblastoma cell line Hs683 were obtained from ATCC. The glioma cell line U-251 was purchased from Sigma Aldrich and the normal human fibroblast cell lines NHDF from PromoCell. The human colon cancer cell line HCT116 with a p53 deletion (p53^-/-) was kindly provided by Prof. M. Rusin from the Maria Sklodowska-Curie Memorial Cancer Centre and Institute of Oncology in Gliwice, Poland. Cells were grown as monolayer cultures in Dulbecco’s modified Eagle’s medium with an antibiotic gentamicin (200 μL/100 mL medium) in 75 cm^2 flasks (Nunc). DMEM for HCT116, MCF-7, U-251, Hs683 were supplemented with 12% heat-inactivated fetal bovine serum (Sigma) and for NHDF with 15% non-inactivated fetal bovine serum (Sigma). All the cell lines were cultured under standard conditions at 37°C in a humidified atmosphere at 5% CO2.
(§2) The cells were seeded in 96-well plates (Nunc) at a density of 5,000 cells/well (HCT116, MCF-7, U-251, Hs683) and 4,000 cells/well (NHDF) and incubated at 37°C for 24 h. The assay was performed following a 72 h incubation with varying concentrations of the compounds that were tested. Then, 20 μL of The CellTiter 96®AQueous One Solution-MTS (Promega) solution was added to each well (with 100 μL DMEM without phenol red) and incubated for 1 h at 37°C. The optical densities of the samples were analyzed at 490 nm using a multi-plate reader (Synergy 4, Bio Tek). Results were expressed as a percentage of the control and calculated as the inhibitory concentration (IC50) values using GraphPad Prism 5. The IC50 parameter was defined as the compound concentration that was necessary to reduce the proliferation of cells to 50% of the untreated control. Each individual compound was tested in triplicate in a single experiment with each experiment being repeated four to five times.
(Tetrazolium dyes change colour on reduction, which living cells bring about.)

A further data set relates to HCT116 p53^+/+. The data set is described as follows: Cytotoxicity MTS assay, 72 h. The format is cell-based, human. As to conditions: Homo sapiens, HCT-116; HCT116 p53^+/+; 72 h; MTS.
Source text: as §1, §2

The next data set has as its system MCF-7. The data set is described as follows: Cytotoxicity MTS assay, 72 h. The format is cell-based, human. As to conditions: Homo sapiens, MCF7; MCF-7; 72 h; MTS.
Source text: as §1, §2

A further data set has as its system U-251. Description: Cytotoxicity MTS assay, 72 h. The format is cell-based, human. The conditions noted are these: Homo sapiens; U-251; 72 h; MTS.
Source text: as §1, §2

The subject of the next data set is HCT116 p53^-/-. Description: Cytotoxicity MTS assay, 72 h. The format is cell-based, human. As to conditions: Homo sapiens, HCT-116; HCT116 p53^-/-; 72 h; MTS.
Source text: as §1, §2

A further data set has as its system Hs683. The data set is described as follows: Cytotoxicity MTS assay, 72 h. The format is cell-based, human. As to conditions: Homo sapiens, Hs 683; Hs683; 72 h; MTS.
Source text: as §1, §2

The conditions of data set [1]: tabulated value; cited from earlier work.

Structures are written as SMILES.

Regarding `Nc1cccnc1C=NNC(=S)N1CCN(c2ccc(C(F)(F)F)cn2)CC1` [L^9, N’-[(3-aminopyridin-2-yl)methylidene]-4-[5-(trifluoromethyl)pyridin-2-yl]piperazine-1-carbothiohydrazide], the IC50 in the data set with NHDF was over 25000 nM; with HCT116 p53^+/+ it was 422 ± 113 nM; with MCF-7, 204 ± 24 nM; in the data set with U-251, 277 ± 58 nM; in the data set on HCT116 p53^-/-, 123 ± 61 nM; in the data set with Hs683 it was 844 ± 238 nM.

On to `Nc1cccnc1C=NNC(=S)N1CCN(c2cnccn2)CC1` [L^12, N’-[(3-aminopyridin-2-yl)methylidene]-4-(pyrazin-2-yl)piperazine-1-carbothiohydrazide], for which the melting point lay in the range of 217 to 218 °C. In the data set with NHDF, the IC50 is over 25000 nM. For the same compound, the 50% inhibitory concentration (IC50) with HCT116 p53^+/+ came to 435 ± 108 nM. Moreover, the IC50 with MCF-7 is 2220 ± 638 nM. Moreover, the half-inhibitory concentration (IC50) with U-251 came out at 743 ± 109 nM. In addition, the half-inhibitory concentration (IC50) in the data set with HCT116 p53^-/- was 342 ± 42 nM. In the data set with Hs683, the IC50 amounted to 2600 ± 237 nM.

In turn, `CC(C)(C)OC(=O)N1CCN(C(=S)NN=Cc2ncccc2N)CC1` [L^7, tert-butyl 4-({2-[(3-aminopyridin-2-yl)methylidene]hydrazinyl}carbonothioyl)piperazine-1-carboxylate] gave a melting point of 193 to 194 °C. Moreover, the half-inhibitory concentration (IC50) in the data set with NHDF was over 25000 nM. Besides, the IC50 with HCT116 p53^+/+ came out at 762 ± 238 nM. In the data set with MCF-7, the concentration for half-maximal inhibition (IC50) was 2540 ± 400 nM. Also, the half-maximal inhibitory concentration (IC50) in the data set on U-251 turned out to be 3080 ± 1270 nM. Besides, the IC50 in the data set with HCT116 p53^-/- was found to be 1130 ± 49 nM. Besides, the IC50 in the data set with Hs683 came to 4620 ± 1030 nM.

Compound `Nc1cccnc1C=NNC(=S)N1CCN(c2ccc(F)cc2)CC1` [L^2, N’-[(3-aminopyridin-2-yl)methylidene]-4-(4-fluorophenyl)piperazine-1-carbothiohydrazide] returned a melting point of 210 to 211 °C. Further, the 50% inhibitory concentration (IC50) in the data set with NHDF was over 25000 nM. For the same compound, the IC50 with HCT116 p53^+/+ amounted to 526 ± 77 nM. In addition, the IC50 in the data set with MCF-7 worked out at 360 ± 111 nM. For the same compound, the concentration for half-maximal inhibition (IC50) in the data set on U-251 was found to be 887 ± 158 nM. Further, the IC50 in the data set on HCT116 p53^-/- was 152 ± 74 nM. Moreover, the IC50 in the data set with Hs683 worked out at 2490 ± 512 nM.

`Nc1cccnc1C=NNC(=S)N1CCN(c2ccccn2)CC1` [L^8, N’-[(3-aminopyridin-2-yl)methylidene]-4-(pyridin-2-yl)piperazine-1-carbothiohydrazide] came in with a melting point of 210 to 211 °C. Also, the IC50 with NHDF was over 25000 nM. Moreover, in the data set on HCT116 p53^+/+, the IC50 was 1900 ± 292 nM. The IC50 in the data set with MCF-7 is 1120 ± 113 nM. In addition, the IC50 in the data set on U-251 is 1070 ± 280 nM. Further, in the data set on HCT116 p53^-/-, the IC50 was 139 ± 20 nM. Besides, in the data set on Hs683, the IC50 amounted to 1160 ± 307 nM.

In the case of `Nc1cccnc1C=NNC(=S)N1CCN(c2ncccn2)CC1` [L^11, N’-[(3-aminopyridin-2-yl)methylidene]-4-(pyrimidin-2-yl)piperazine-1-carbothiohydrazide], the melting point is 198 to 199 °C. In the data set on NHDF, the IC50 is over 25000 nM. The IC50 in the data set on HCT116 p53^+/+ turned out to be 668 ± 45 nM. The 50% inhibitory concentration (IC50) with MCF-7 was found to be 1730 ± 388 nM. Further, in the data set with U-251, the IC50 amounted to 1270 ± 374 nM. Also, the IC50 in the data set on HCT116 p53^-/- was 650 ± 55 nM. For the same compound, the IC50 in the data set with Hs683 is 2840 ± 581 nM.

Compound `Nc1cccnc1C=NNC(=S)N1CCN(c2ncc(C(F)(F)F)cc2Cl)CC1` [L^10, N’-[(3-aminopyridin-2-yl)methylidene]-4-[3-chloro-5-(trifluoromethyl)pyridin-2-yl]piperazine-1-carbothiohydrazide] gave a melting point of 199 to 200 °C. In the data set on NHDF, the half-inhibitory concentration (IC50) was over 25000 nM. In addition, the half-inhibitory concentration (IC50) in the data set with HCT116 p53^+/+ was 170 ± 15 nM. The IC50 in the data set on MCF-7 was determined as 258 ± 40 nM. The half-maximal inhibitory concentration (IC50) in the data set on U-251 is 137 ± 16 nM. Also, the IC50 in the data set on HCT116 p53^-/- came out at 159 ± 11 nM. Moreover, the concentration for half-maximal inhibition (IC50) with Hs683 was 195 ± 21 nM.

As for `c1ccncc1` [pyridine], in data set [1], the logK was 5.23.

In turn, `COc1ccc(N2CCN(C(=S)NN=Cc3ncccc3N)CC2)cc1` [L^4, N’-[(3-aminopyridin-2-yl)methylidene]-4-(4-methoxyphenyl)piperazine-1-carbothiohydrazide] returned a melting point of 195 to 196 °C. In addition, the concentration for half-maximal inhibition (IC50) in the data set on NHDF is over 25000 nM. For the same compound, in the data set on HCT116 p53^+/+, the 50% inhibitory concentration (IC50) is 1330 ± 209 nM. Also, the IC50 in the data set with MCF-7 is 424 ± 149 nM. In the data set with U-251, the IC50 turned out to be 649 ± 170 nM. The IC50 with HCT116 p53^-/- amounted to 185 ± 88 nM. Further, the IC50 in the data set on Hs683 turned out to be 4460 ± 954 nM.

In turn, `Nc1cccnc1C=NNC(=S)N1CCN(c2ccccc2)CC1` [L^1, N’-[(3-aminopyridin-2-yl)methylidene]-4-phenylpiperazine-1-carbothiohydrazide] had a melting point of 189 to 190 °C. For the same compound, in the data set with NHDF, the IC50 was over 25000 nM. For the same compound, the IC50 in the data set with HCT116 p53^+/+ was 1520 ± 445 nM. In the data set with MCF-7, the IC50 worked out at 532 ± 145 nM. Also, the IC50 in the data set on U-251 stood at 403 ± 90 nM. Besides, the half-maximal inhibitory concentration (IC50) in the data set on HCT116 p53^-/- worked out at 128 ± 12 nM. Also, the IC50 in the data set with Hs683 worked out at 1440 ± 358 nM.

`N#Cc1ccc(N2CCN(C(=S)NN=Cc3ncccc3N)CC2)cc1` [L^5, N’-[(3-aminopyridin-2-yl)methylidene]-4-(4-cyanophenyl)piperazine-1-carbothiohydrazide] registered a melting point of 209 to 210 °C. Also, the 50% inhibitory concentration (IC50) in the data set on NHDF was over 25000 nM. Further, in the data set with HCT116 p53^+/+, the IC50 was 1450 ± 452 nM. In the data set with MCF-7, the IC50 came to 3810 ± 1020 nM. In the data set with U-251, the IC50 was determined as 2570 ± 675 nM. Moreover, the IC50 with HCT116 p53^-/- was 746 ± 354 nM. The IC50 in the data set on Hs683 is 10000 ± 2640 nM.

`Nc1cccnc1C=NNC(=S)N1CCN(c2ccc(C(F)(F)F)cc2[N+](=O)[O-])CC1` [L^6, N’-[(3-aminopyridin-2-yl)methylidene]-4-[2-nitro-4-(trifluoromethyl)phenyl]piperazine-1-carbothiohydrazide] came in with a melting point of 179 to 180 °C. Besides, the IC50 in the data set on NHDF was over 25000 nM. For the same compound, the 50% inhibitory concentration (IC50) with HCT116 p53^+/+ was determined as 139 ± 16 nM. In addition, the IC50 in the data set with MCF-7 was 470 ± 97 nM. The IC50 in the data set on U-251 was 381 ± 42 nM. For the same compound, in the data set with HCT116 p53^-/-, the IC50 is 270 ± 7 nM. For the same compound, the IC50 with Hs683 turned out to be 1890 ± 812 nM.

The IC50 is the concentration that gives 50% inhibition. As usually defined, the melting point is the temperature of the solid-liquid transition.

The values are drawn from paper PMC5898707, “Piperazinyl fragment improves anticancer activity of Triapine” (PLoS ONE, 2018).
